Assay results: patent US20100217003A1, “1,2,3,4-TETRAHYDROISOQUINOLINE DERIVATIVES HAVING EFFECTS OF PREVENTING AND TREATING DEGENERATIVE AND INFLAMMATORY DISEASES” (priority 2006, published 2010)

Tested on: activated microglial cell
Experiment: BH4 production in an activated microglial cell
Type: cell-based
Details: activated microglial cell (FIG. 12)

With `COc1cc2c(cc1O)CNCC2` [HMTIQ, 7-hydroxy-6-methoxy-1,2,3,4-tetrahydroisoquinoline] the BH4 production was “inhibitory effect”.
